Source: US6503759B1, “Complex combinatorial chemical libraries encoded with tags” (The Trustees of Columbia University in the City of New York, priority 1992, dated 2003)

Tested on: anti-C-myc peptide monoclonal antibody 9E10
Test: bead staining test for binding to anti-C-myc monoclonal antibody 9E10
Settings: bead-bound peptides of the 117,649 peptide library; 1:200 dilution of 9E10 ascites fluid; alkaline phosphatase-coupled goat antimouse IgG colour detection; sequence read from tags
Procedure: The anti-C-myc peptide monoclonal antibody 9E10 was prepared from ascites fluid as described in Evans et al., Mol. Cell Biol., 5, 3610-3616 (1985) and Munro and Pelham, Cell, 48, 899-907 (1987). To test beads for binding to 9E10, beads were incubated in TBST [20 mM Tris-HCl (pH 7.5), 500 mM NaCl and 0.05% Tween-20] containing 1% bovine serum albumin (BSA) to block non-specific protein binding sites. The beads were then centrifuged, resuspended in a 1:200 dilution of 9E10 ascites fluid in TBST+1% BSA and incubated overnight at 4° C. Beads were subsequently washed three times in TBST and incubated for 90 min. at room temperature in alkaline phosphatase-coupled goat antimouse IgG antibodies (Bio-Rad Laboratories), diluted 1:3000 in TBST+1% BSA. After washing the beads twice in TBST and once in phosphatase buffer (100 mM Tris-HCl, pH 9.5, 100 mM NaCl and 5 mM MgCl2), the beads were incubated 1 hr at room temperature in phosphatase buffer containing one one-hundredth part each of AP Color Reagents A & B (Bio-Rad Laboratories). To stop the reaction, the beads were washed twice in 20 mM sodium EDTA, pH 7.4. Solution phase affinities between 9E10 and various peptides were determined by a modification of the competitive ELISA assay described by Harlow et al., Antibodies: a Laboratory Manual, 570-573, Cold Spring Harbor Press, Cold Spring Harbor, N.Y.

For EQKLISEEDL, the “beads stained on exposure to the anti-C-myc monoclonal antibody” value was “stained”.
